Source: patent publication US6720346B2, “Thiazole benzamide derivatives and pharmaceutical compositions for inhibiting cell proliferation” (Agouron Pharmaceuticals, Inc., priority 2001, dated 2004)
Structures can show the parent of a compound that is named as a salt.

Assays:
[1] = test system: HCT-116 cell line; test: Inhibition of cell growth, MTT tetrazolium salt assay; assay type: cell-based; settings: for IC50: Homo sapiens, HCT-116, 120 h, MTT, three to five days
How it was run: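 Growth inhibition was read as MTT-formazan absorbance at 540 nm, after 4 h with 0.2 mg/mL MTT. Before that, HCT-116 cells had been exposed 3–5 days at 37 °C to compounds in 0.5% (v/v) DMSO, added 4 h after plating. 50% and 90% inhibitory concentrations were taken from semi-log concentration–inhibition plots versus vehicle controls.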

[2] = biological target: T1, CDK2/cyclin A (Homo sapiens, UniProt P24941); test: Inhibition of CDK2/cyclin A retinoblastoma kinase activity (Ki; % inhibition); assay type: biochemical; settings: for Ki: apparent Ki, CDK2/cyclin A, Rb substrate
T1 construct: made in house; host or cells: CDK2: insect cells (baculovirus); cyclin A: E. coli
How it was run: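 Apparent Ki values came from fitting concentration-dependent activity data to competitive (or competitive tight-binding) models, and % inhibition from single 30 nM screens of library compounds. Activity was measured as ³²P/³³P incorporation from 25 μM ATP into an Rb substrate by 10 or 19 nM CDK2/delta cyclin A at 30 °C over 60–75 min, pH 7.4.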

[3] = biological target: T2, human CDK4/cyclin D3 (Homo sapiens, UniProt P11802); test: Inhibition of CDK4/cyclin D retinoblastoma kinase activity (Ki; % inhibition); assay type: biochemical; settings: for Ki: apparent Ki, CDK4/cyclin D3, Rb substrate
T2 construct: made in house; host or cells: insect cells co-infected with baculovirus vectors
How it was run: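 Radiometric filter-binding read-out: Rb residues 386-928 phosphorylated by 5 nM CDK4/cyclin D3(1-264) from baculovirus-infected insect cells, 25 μM ATP, HEPES pH 7.4, 30 °C. Run 20 min, or 60 min for tight-binding inhibitors. Screening at 30 nM theoretical compound; apparent Ki by competitive-inhibition fitting.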

[4] = HCT-116 cells, 0.25 μM compound

T2 sequence (P11802 whole entry): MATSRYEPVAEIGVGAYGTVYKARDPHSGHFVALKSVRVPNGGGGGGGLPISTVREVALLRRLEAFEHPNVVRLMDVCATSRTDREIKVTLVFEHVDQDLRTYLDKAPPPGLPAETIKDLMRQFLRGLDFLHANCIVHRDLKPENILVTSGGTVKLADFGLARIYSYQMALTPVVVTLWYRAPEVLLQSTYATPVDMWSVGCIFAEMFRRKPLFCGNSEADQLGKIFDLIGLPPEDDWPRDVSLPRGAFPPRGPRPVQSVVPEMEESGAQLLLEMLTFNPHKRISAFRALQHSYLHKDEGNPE
T2 sequence (P30281 1-264 partner limits assumed): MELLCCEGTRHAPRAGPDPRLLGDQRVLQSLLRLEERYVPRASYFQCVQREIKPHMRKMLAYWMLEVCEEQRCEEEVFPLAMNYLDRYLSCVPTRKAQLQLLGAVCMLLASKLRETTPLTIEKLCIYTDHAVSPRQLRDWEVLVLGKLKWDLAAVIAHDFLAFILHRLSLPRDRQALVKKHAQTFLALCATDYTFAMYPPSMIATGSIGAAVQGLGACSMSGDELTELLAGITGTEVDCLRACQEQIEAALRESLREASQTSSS

SMILES	CDK2 % Inhibition at 0.03 μM ([2]; 0.03 μM compound) [%]	CDK4 % Inhibition at 0.03 μM ([3]; 0.03 μM compound) [%]	CDK2 % Inhibition at 0.03 μM ([2]; at 0.03 μM) [%]	CDK4 % Inhibition at 0.03 μM ([3]; at 0.03 μM) [%]	HCT-116 % Inhibition at 0.1 μM ([1]; HCT-116 cells, 0.1 μM compound) [%]	HCT-116 % Inhibition at 0.25 μM [1, 4] [%]	HCT-116 % Inhibition at 0.25 μM ([1]; HCT-116, at 0.25 μM) [%]	further results
Cc1ccncc1C(=O)c1sc(Nc2ccc(C(=O)NC[C@@H]3CCCN3C)cc2)nc1N [Example A59, 4-{4-Amino-5-[1-(4-methyl-pyridin-3-yl)methanoyl]-thiazol-2-ylamino}-N-(1-methyl-pyrrolidin-2S-ylmethyl)-benzamide Hydrochloride Salt]								IC50 [1]: 2900 nM; Ki [2]: 830 nM; Ki [3]: 97 nM
CN1[C@@H]2CC[C@@H](C2)[C@@H]1CNC(=O)c1ccc(Nc2nc(N)c(C(=O)c3c(F)cccc3F)s2)cc1 (relative stereo) [Example A76, 4-[4-Amino-5-(2,6-difluoro-benzoyl)-thiazol-2-ylamino]-N-(2-methyl-2-aza-bicyclo[2.2.1]hept-3-endo-ylmethyl)-benzamide]								IC50 [1]: 1100 nM; Ki [2]: 15 nM; Ki [3]: 120 nM
N#Cc1cccc(NC(=O)c2ccc(Nc3nc(N)c(C(=O)c4c(F)cccc4F)s3)cc2)c1 [Example G60]			12	18			66	
Cc1ccsc1C(=O)c1sc(Nc2ccc(C(=O)N[C@H](C)CN(C)C)cc2)nc1N [Example A62, 4-{4-Amino-5-[1-(3-methyl-thiophen-2-yl)-methanoyl]-thiazol-2-ylamino}-N-(2-dimethylamino-1R-methyl-ethyl)-benzamide Trifluoroacetic Acid Salt]								IC50 [1]: 44 nM; Ki [2]: 2.8 nM; Ki [3]: 120 nM
Nc1nc(Nc2ccc(C(=O)NCCN3CCOCC3)cc2)sc1C(=O)c1c(F)cccc1F [Example A1, 4-[4-Amino-5-(2,6-difluoro-benzoyl)-thiazol-2-ylamino]-N-(2-morpholin-4-yl-ethyl)-benzamide]								IC50 [1]: 750 nM; Ki [2]: 140 nM; Ki [3]: 27 nM
Cc1ccc(NC(=O)c2ccc(Nc3nc(N)c(C(=O)c4c(F)cccc4F)s3)cc2)c(Cl)c1 [Example G44]			8	14			72	
Nc1nc(Nc2ccc(C(=O)NC3CCSC3=O)cc2)sc1C(=O)c1c(F)cccc1F (centres unmarked) [Example G121]			13	20			55	HCT-116 % Inhibition at 0.1 μM ([1]; HCT-116, at 0.1 μM): 0%
CN(C)CCCN(C)C(=O)c1ccc(Nc2nc(N)c(C(=O)c3c(F)cccc3F)s2)cc1 [Example G64]			5	17			57	
COCCN(C)C(=O)c1ccc(Nc2nc(N)c(C(=O)c3c(F)cccc3F)s2)cc1 [Example G13]			−16	0			44	
CC(=O)N1CCC[C@H]1CNC(=O)c1ccc(Nc2nc(N)c(C(=O)c3c(F)cccc3F)s2)cc1 [Example A10, 4-[4-Amino-5-(2,6-difluoro-benzoyl)-thiazol-2S-ylamino]-N-(1-Acetyl-pyrrolidin-2S-ylmethyl)-benzamide]								IC50 [1]: 1600 nM; Ki [2]: 290 nM; Ki [3]: 49 nM
COCCN(CCOC)C(=O)c1ccc(Nc2nc(N)c(C(=O)c3c(F)cccc3F)s2)cc1 [Example G36]			−4	6			62	
Nc1nc(Nc2ccc(C(=O)Nc3ccc(O)cc3)cc2)sc1C(=O)c1c(F)cccc1F [Example G74]			23	18			78	
Nc1nc(Nc2ccc(C(=O)NCC(O)c3ccccc3)cc2)sc1C(=O)c1c(F)cccc1F (centres unmarked) [Example G104]			8	14			91	HCT-116 % Inhibition at 0.1 μM ([1]; HCT-116, at 0.1 μM): 38%
Cc1ccc(NC(=O)c2ccc(Nc3nc(N)c(C(=O)c4c(F)cccc4F)s3)cc2)cc1Cl [Example G8]			−1	−5			50	
CN(C)CCN(C)C(=O)c1ccc(Nc2nc(N)c(C(=O)c3c(F)cccc3F)s2)cc1 [Example G57]			17	19			51	
CN(C)CCNC(=O)c1ccc(Nc2nc(N)c(C(=O)c3c(F)cccc3F)s2)cc1Cl [C]								IC50 [1]: 210 nM; Ki [2]: 170 nM; Ki [3]: 27 nM

More lines, main results first:

CDK2 % Inhibition at 0.03 μM ([2]; 0.03 μM compound) [%]	CDK4 % Inhibition at 0.03 μM ([3]; 0.03 μM compound) [%]	CDK2 % Inhibition at 0.03 μM ([2]; at 0.03 μM) [%]	CDK4 % Inhibition at 0.03 μM ([3]; at 0.03 μM) [%]	SMILES	HCT-116 % Inhibition at 0.1 μM ([1]; HCT-116 cells, 0.1 μM compound) [%]	HCT-116 % Inhibition at 0.25 μM [1, 4] [%]	HCT-116 % Inhibition at 0.25 μM ([1]; HCT-116, at 0.25 μM) [%]	further results
−10	13			Nc1nc(Nc2ccc(C(=O)NCCC3OCCO3)cc2)sc1C(=O)c1c(F)cccc1F [Example G342]	20	55		
−11	10			Nc1nc(Nc2ccc(C(=O)Nc3ccc(Cl)cc3CO)cc2)sc1C(=O)c1c(F)cccc1F [Example G341]	23	93		
25	18			CCOC(CNC(=O)c1ccc(Nc2nc(N)c(C(=O)c3c(F)cccc3F)s2)cc1)OCC [Example G344]	24	50		
−15	5			C=CCN(C(=O)c1ccc(Nc2nc(N)c(C(=O)c3c(F)cccc3F)s2)cc1)C1CCCCC1 [Example G320]	12	46		
		2	25	NC(=O)CCNC(=O)c1ccc(Nc2nc(N)c(C(=O)c3c(F)cccc3F)s2)cc1 [Example G137]			59	HCT-116 % Inhibition at 0.1 μM ([1]; HCT-116, at 0.1 μM): 0%
16	20			COc1ccc(NC(=O)c2ccc(Nc3nc(N)c(C(=O)c4c(F)cccc4F)s3)cc2)cc1OC [Example G212]	17	53		
38	15			Nc1nc(Nc2ccc(C(=O)NCC3COc4ccccc4O3)cc2)sc1C(=O)c1c(F)cccc1F (centres unmarked) [Example G367]	22	71		
14	9			Cc1ccc(NC(=O)c2ccc(Nc3nc(N)c(C(=O)c4c(F)cccc4F)s3)cc2)cc1 [Example G197]	26	61		
13	18			CCOc1ccccc1CNC(=O)c1ccc(Nc2nc(N)c(C(=O)c3c(F)cccc3F)s2)cc1 [Example G285]	1	60		
23	25			Nc1nc(Nc2ccc(C(=O)NCc3cc(Cl)ccc3Cl)cc2)sc1C(=O)c1c(F)cccc1F [Example G286]	10	60		
19	29			Nc1nc(Nc2ccc(C(=O)Nc3ccc(CCO)cc3)cc2)sc1C(=O)c1c(F)cccc1F [Example G328]	33	89		
		30	36	Nc1nc(Nc2ccc(C(=O)NCc3ccccc3)cc2)sc1C(=O)c1c(F)cccc1F [Example G181]			75	HCT-116 % Inhibition at 0.1 μM ([1]; HCT-116, at 0.1 μM): 28%
12	6			COCCN1CCN(C(=O)c2ccc(Nc3nc(N)c(C(=O)c4c(F)cccc4F)s3)cc2)CC1 [Example G362]	9	57		
10	19			CCCCC(CO)NC(=O)c1ccc(Nc2nc(N)c(C(=O)c3c(F)cccc3F)s2)cc1 (centres unmarked) [Example G329]	9	56		
−9	13			Nc1nc(Nc2ccc(C(=O)NCCOCCO)cc2)sc1C(=O)c1c(F)cccc1F [Example G264]	22	53		
8	22			COc1cc(NC(=O)c2ccc(Nc3nc(N)c(C(=O)c4c(F)cccc4F)s3)cc2)cc(OC)c1OC [Example G295]	10	78		
		11	19	Nc1nc(Nc2ccc(C(=O)NC3CCOC3=O)cc2)sc1C(=O)c1c(F)cccc1F (centres unmarked) [Example G129]			51	HCT-116 % Inhibition at 0.1 μM ([1]; HCT-116, at 0.1 μM): 0%
13	23			Nc1nc(Nc2ccc(C(=O)NCCCc3ccccc3)cc2)sc1C(=O)c1c(F)cccc1F [Example G325]	6	51		
